The source of these data is patent publication US20240277729A1, “METHODS OF TREATMENT AND PHARMACEUTICAL COMPOSITIONS USING AN SGLT-2 INHIBITOR AND A NEUROLEPTIC AGENT” (Boehringer Ingelheim International GmbH, priority 2011, published 2024).

Structures are written as SMILES. Entries after “also recorded” stand apart in the source; their conditions may differ.

One series has as its system Female Wistar rats. Particulars: neuroleptic alone; olanzapine 8 mg/kg sc, clozapine 8 mg/kg sc, haloperidol 4 mg/kg ip; oral glucose load 2 g/kg; FIG. 1A.
For series [1] the following is noted: metformin on its own, in the diabetic; cited from earlier work.

Description for Female Wistar rats: Female Wistar rats (weight range 250-300 g upon arrival) are obtained from Janvier (Le Genest Saint Isle-France, France) and housed in pairs or three together at a temperature of 21±4° C. and 55±20% humidity. The animals are maintained on a reverse phase light-dark cycle (lights off for 8 h from 09.30-17.30 h) during which time the room is illuminated by red light. The animals are housed and have free access to a fat diet and tap water until the night before the oral glucose tolerance test (OGTT) experiment.
An oral glucose tolerance test is performed in overnight fasted animals. A pre-dose blood sample (t0-90 min) is obtained by tail bleed. Blood glucose is measured with a glucometer, and the animals are randomized for blood glucose (n=8/group). Subsequently, the groups receive a single oral administration of either vehicle or a neuroleptic agent in the presence or absence of an SGLT-2 inhibitor. The animals receive an oral glucose load (2 g/kg) 60 min after compound administration. Blood glucose is measured in tail blood 15 min, 30 min, 60 min, 120 min, and 180 min after the glucose challenge. Glucose excursion is quantified by calculating the reactive glucose AUC. The data are presented as mean±SEM.

Take `CN1CCN(C2=Nc3cc(Cl)ccc3Nc3ccccc32)CC1` [Clozapine, 8-chloro-11-(4-methylpiperazin-1-yl)-5H-dibenzo[b,e][1,4]diazepine]: the “glucose tolerance in OGTT” value in the series with Female Wistar rats was “impaired glucose tolerance”. Still for that read-out and setting: the result for `O=C(CCCN1CCC(O)(c2ccc(Cl)cc2)CC1)c1ccc(F)cc1` [haloperidol, 4-[4-(4-chlorophenyl)-4-hydroxy-1-piperidyl]-1-(4-fluorophenyl)-butan-1-one] reads “impaired glucose tolerance; also recorded: worsening of the OGTT was less pronounced”. Turning to `CN(C)C(=N)N=C(N)N` [metformin], the “average improvement in the HbA1c value” in series [1] is listed as 1.0-1.5%.
